Test results taken from US9381195B2, “Derivatives of azaindazole or diazaindazole type for treating pain” (PIERRE FABRE MEDICAMENT, priority 2012, dated 2016).

What was measured:
[1] = tested on: inflammatory pain induced by Complete Freund Adjuvant (CFA); assay: In vivo analgesic activity against acute and chronic inflammatory pain induced by Complete Freund Adjuvant (CFA); conditions: rat
Text: In Vivo Analgesic Activity Against Acute and Chronic Inflammatory Pain Induced by Complete Freund Adjuvant (CFA)
Male Sprague-Dawley rats [Crl:OFA(SD) Charles River Lyon, France] weighing 160-180 g upon arrival were used. Rats were first daily habituated to handling and to the test apparatus used for the von-Frey and hot-plate models one week before the induction of inflammation. On the following Monday, they were subjected to nociceptive tests for determination of basal scores. Then, rats will be given a 100 μl subcutaneous injection of CFA (1 mg/1 ml; Sigma) into the plantar surface of the right hind paw (day 0: D0). Saline was injected by the same route in the placebo group.
Then each rat was placed on an elevated plastic mesh in a clear plastic cage and the number of spontaneous flinches (measurement of spontaneous pain) was recorded during 10 min. Mechanical allodynia was assessed using the von Frey Hair test. Each rat was placed on an elevated plastic mesh in a clear plastic cage and allowed to adapt to the testing environment for at least 5 min. The von Frey Hairs (Semmes-Weinstein monofilaments, Stoelting Ill., USA; 0.6, 1.4, 2, 4, 6, 8, 10, and 15 g) was applied to the plantar surface of the injected paw from below the mesh floor for […] in the ascending order. The threshold was determined as the lowest force that evoked a withdrawal response. The test was repeated three times with an interval of 5 min between each test. The paw withdrawal score to the tactile stimulus was determined as the average of the 3 measurements. Animals received intraperitoneal or oral injections of test compounds. […] Compound completely or nearly completely reversed spontaneous pain from 0.16 mg/kg and mechanical allodynia from 2.5 mg/kg.

TrkA (or NTRK1) = molecular target: T1, TrkA (or NTRK1) (Homo sapiens, UniProt P04629); assay: In vitro kinase glo plus-based kinase assay, TrkA; assay type: biochemical; conditions: comparative experiments; 30 μM ATP
T1 construct: using the soluble intracellular segment of theses receptors, containing the kinase activity; purchased Millipore
T1 sequence (P04629 440-796 limits assumed): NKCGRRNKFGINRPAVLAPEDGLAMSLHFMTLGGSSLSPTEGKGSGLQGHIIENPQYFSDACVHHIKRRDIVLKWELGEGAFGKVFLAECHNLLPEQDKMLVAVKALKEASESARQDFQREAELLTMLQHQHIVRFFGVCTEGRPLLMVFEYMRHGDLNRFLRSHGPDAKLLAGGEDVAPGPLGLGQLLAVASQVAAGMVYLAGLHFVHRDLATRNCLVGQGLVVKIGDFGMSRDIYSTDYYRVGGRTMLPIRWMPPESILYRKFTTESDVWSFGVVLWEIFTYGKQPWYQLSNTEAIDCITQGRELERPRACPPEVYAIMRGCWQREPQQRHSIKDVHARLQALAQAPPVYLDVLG
Protocol: (§1) Plates were removed from incubator, and 50 μl of kinase-glo plus was added to each well, followed by a 10 minute incubation at room temperature. The luciferase-induced luminescence, which is proportional to the ATP remaining in the well, was measured on a luminometer. Controls on each plates included wells with the kinase alone (maximal ATP consumption, or 0% inhibition), wells without the kinase (maximal ATP signal or 100% inhibition), and wells with 20 μM staurosporine (positive control of inhibition).

NGF-induced hyperalgesia = assay: In vivo analgesic activity against NGF-induced hyperalgesia (hot plate); conditions: mouse; for inhibition of NGF-induced hyperalgesia (latency time): given 30 min before NGF, hot plate four hours after NGF
Protocol: In Vivo Analgesic Activity Against NGF-Induced Hyperalgesia Compounds of general formula (I), and particularly compound 30 have been tested in vivo in the mouse receiving an intraplantar injection of NGF. This treatment elicits thermal hyperalgesia (Schuligoi et al., 1998, Neuroscience Letters 252:147-149). Briefly, male mice received a 10 μl subcutaneous injection of NGFβ (1 μg; SIGMA) into the plantar surface of the right hind paw. Following the injection, mice were returned to their cages. Four hours after NGF injection, mice were placed on the centre of the hot plate analgesimeter (BIO-HC2.00, Bioseb, France), and the latency time to the first brisk lift or lick of a hind paw or jumping will be recorded. A maximum cut-off time of 60 sec is used to prevent tissue damage. Results are given as the mean±s.e.m. of the latency time. Test compounds were given 30 min before NGF injection.

[2] = tested on: formalin test (paw licking); assay: In vivo analgesic activity in the formalin test; set-up: species or system rat; conditions: rats, second phase of the formalin test, vs. vehicle-treated animals, P<0.05
Text: In Vivo Analgesic Activity in the Formalin Test in Rats The method was adapted from Wheeler-Aceto et al. (Pain, 1990, 40:229-38) and Bardin et al. (2003, Pharmacology 67: 182-194). In the second phase of the test, Compound 30 inhibited paw licking by 44% vs. vehicle-treated animals (P<0.05 by ANOVA).

TrkB = molecular target: T2, TrkB (Homo sapiens, UniProt Q16620); assay: Test for measuring inhibition of TrkB kinase (Millipore or Kinome Scan, manufacturer's protocols); assay type: biochemical; conditions: read-out: Enzymatic inhibition at 10 nM (%) TrkB
T2 construct: purchased Millipore or Kinome Scan (DiscoverX)
T2 sequence (Q16620 32-822): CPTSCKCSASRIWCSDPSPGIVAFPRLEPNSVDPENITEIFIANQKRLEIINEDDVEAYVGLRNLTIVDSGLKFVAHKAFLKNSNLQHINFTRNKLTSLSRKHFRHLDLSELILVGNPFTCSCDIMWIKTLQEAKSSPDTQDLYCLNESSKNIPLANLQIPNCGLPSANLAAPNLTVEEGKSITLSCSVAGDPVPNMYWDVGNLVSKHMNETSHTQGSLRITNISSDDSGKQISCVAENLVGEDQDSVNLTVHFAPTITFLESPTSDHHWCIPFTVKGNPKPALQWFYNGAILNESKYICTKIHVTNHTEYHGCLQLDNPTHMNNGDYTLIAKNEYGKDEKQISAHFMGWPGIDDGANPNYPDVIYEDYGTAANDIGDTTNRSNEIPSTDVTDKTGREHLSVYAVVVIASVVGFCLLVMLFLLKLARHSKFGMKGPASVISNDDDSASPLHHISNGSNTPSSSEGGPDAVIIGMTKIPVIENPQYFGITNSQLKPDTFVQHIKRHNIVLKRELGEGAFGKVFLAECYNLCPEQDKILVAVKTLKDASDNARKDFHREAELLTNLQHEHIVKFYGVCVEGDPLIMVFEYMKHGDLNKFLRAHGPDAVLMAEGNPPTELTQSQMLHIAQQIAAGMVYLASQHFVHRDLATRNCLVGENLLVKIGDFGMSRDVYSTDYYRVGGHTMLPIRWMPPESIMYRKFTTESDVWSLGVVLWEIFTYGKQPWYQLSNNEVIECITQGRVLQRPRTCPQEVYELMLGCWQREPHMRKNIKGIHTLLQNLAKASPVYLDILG
Text: (§2) Test for Measuring Inhibition of TrkA, TrkB or TrkC Kinase
(§3) These kinases are produced by Millipore or Kinome Scan (DiscoverX) and are screened according to the manufacturer's protocols.

bone cancer pain = assay: In vivo analgesic activity against chronic pain in a model of bone cancer pain (NCTC 2472 fibrosarcoma cells in tibia); set-up: species or system mouse; conditions: C3H/HeNCrl mice
Protocol: In Vivo Analgesic Activity Against Chronic Pain in a Model of Bone Cancer Pain
Bone cancer produces one of the most painful conditions that affect humans and animals. […] Several models of murine osteosarcoma-induced pain have been developed (Pacharinsak and Beitz, Animal models of cancer pain. Comp Med. 2008 June; 58:220-33.).
We induced bone cancer pain by implanting 10 μl of PBS containing 2×10^5 NCTC 2472 osteolytic fibrosarcoma cells into the tibia of 5-6 week-old C3H/HeNCrl mice under isoflurane anesthesia. The presence of these cells induces osteolytic lesions in bone due to both an increase in the number of osteoclasts and to their activation, which leads to the destruction of bone tissue and the invasion of the adjacent soft tissue and pain related behaviours. Pain-related behaviours were evaluated both prior to and at 3, 7, 10, 14 and 17 days following tumor cell injection. The following behaviors were evaluated: • Limb use during spontaneous ambulation on a scale of 0-4 where 0=normal use and 4=no use of the injected hind paw; • Light touch-evoked pain. Light touch induced flinching were measured after the 1 min period of non noxious stimulation of the tumor injected paw with a small paint brush. The numbers of flinches were recorded over 5 min. […]

TrkC = molecular target: T3, TrkC (Homo sapiens, UniProt Q16288); assay: Test for measuring inhibition of TrkC kinase (Millipore or Kinome Scan, manufacturer's protocols); assay type: biochemical; conditions: read-out: Enzymatic inhibition at 10 nM (%) TrkC
T3 construct: purchased Millipore or Kinome Scan (DiscoverX)
T3 sequence (Q16288 32-839): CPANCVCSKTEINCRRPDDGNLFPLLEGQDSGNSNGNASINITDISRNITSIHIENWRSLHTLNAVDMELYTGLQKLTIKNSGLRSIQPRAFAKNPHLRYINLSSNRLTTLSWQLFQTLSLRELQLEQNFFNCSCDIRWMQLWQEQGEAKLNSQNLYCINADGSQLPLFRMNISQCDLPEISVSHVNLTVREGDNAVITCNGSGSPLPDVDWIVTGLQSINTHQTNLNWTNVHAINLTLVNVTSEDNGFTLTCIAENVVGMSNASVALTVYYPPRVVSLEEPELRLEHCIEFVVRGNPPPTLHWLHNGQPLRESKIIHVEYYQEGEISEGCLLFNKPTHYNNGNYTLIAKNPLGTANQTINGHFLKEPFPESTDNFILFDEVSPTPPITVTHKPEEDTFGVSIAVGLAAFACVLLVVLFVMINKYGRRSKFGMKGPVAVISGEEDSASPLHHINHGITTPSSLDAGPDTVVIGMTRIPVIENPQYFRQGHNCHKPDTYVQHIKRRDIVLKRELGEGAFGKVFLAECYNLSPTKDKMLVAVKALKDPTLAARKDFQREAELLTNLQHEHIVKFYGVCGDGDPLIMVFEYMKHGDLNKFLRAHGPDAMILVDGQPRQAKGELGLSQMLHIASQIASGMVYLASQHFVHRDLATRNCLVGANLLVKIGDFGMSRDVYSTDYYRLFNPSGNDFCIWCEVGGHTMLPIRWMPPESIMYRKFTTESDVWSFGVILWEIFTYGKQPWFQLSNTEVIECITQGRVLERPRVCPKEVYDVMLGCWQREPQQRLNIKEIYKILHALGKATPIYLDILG
Text: as §2, §3

TrkA = molecular target: T4, TrkA (Homo sapiens, UniProt P04629); assay: Test for measuring inhibition of TrkA kinase (Millipore or Kinome Scan, manufacturer's protocols); assay type: biochemical; conditions: read-out: Enzymatic inhibition at 10 nM (%) TrkA
T4 construct: purchased Millipore or Kinome Scan (DiscoverX)
T4 sequence (P04629 33-796): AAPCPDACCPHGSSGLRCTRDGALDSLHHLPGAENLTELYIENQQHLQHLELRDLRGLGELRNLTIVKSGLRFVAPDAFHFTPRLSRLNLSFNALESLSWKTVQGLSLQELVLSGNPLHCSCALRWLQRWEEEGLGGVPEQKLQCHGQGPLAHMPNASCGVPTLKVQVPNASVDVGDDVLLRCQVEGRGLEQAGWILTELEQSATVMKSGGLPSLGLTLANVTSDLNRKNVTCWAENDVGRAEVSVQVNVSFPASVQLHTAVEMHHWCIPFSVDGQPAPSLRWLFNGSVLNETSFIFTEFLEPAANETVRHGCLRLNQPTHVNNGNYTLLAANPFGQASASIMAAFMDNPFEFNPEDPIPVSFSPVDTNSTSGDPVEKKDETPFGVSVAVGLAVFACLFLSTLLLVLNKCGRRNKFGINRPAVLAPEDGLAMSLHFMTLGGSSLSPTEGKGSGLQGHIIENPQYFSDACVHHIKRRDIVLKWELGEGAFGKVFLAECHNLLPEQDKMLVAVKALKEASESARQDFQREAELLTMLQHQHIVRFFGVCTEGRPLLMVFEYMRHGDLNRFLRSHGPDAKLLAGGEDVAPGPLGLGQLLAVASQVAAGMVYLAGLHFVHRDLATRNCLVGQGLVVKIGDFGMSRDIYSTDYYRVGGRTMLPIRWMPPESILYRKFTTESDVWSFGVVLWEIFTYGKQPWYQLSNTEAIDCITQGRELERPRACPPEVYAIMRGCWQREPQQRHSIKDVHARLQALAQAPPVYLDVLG
Text: as §2, §3

TrkB (or NTRK2) = molecular target: T5, TrkB (or NTRK2) (Homo sapiens, UniProt Q16620); assay: In vitro kinase glo plus-based kinase assay, TrkB; assay type: biochemical; conditions: comparative experiments; 40 μM ATP
T5 construct: using the soluble intracellular segment of theses receptors, containing the kinase activity; purchased Invitrogen
T5 sequence (Q16620 455-822 limits assumed): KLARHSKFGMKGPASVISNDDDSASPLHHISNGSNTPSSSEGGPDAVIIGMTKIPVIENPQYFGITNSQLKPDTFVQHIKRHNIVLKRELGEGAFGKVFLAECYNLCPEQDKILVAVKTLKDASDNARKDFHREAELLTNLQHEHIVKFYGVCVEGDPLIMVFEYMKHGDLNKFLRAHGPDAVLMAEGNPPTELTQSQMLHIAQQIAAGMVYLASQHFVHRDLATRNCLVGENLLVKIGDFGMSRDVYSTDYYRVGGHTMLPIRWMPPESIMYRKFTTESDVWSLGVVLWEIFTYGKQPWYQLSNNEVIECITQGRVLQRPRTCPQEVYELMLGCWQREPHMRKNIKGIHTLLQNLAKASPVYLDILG
Protocol: as §1, with “An in vitro kinase glo plus-based kinase assay (Promega) was developed in a 96 wells assay plate format to assess the inhibiting properties of compounds on tropomyosin related kinases (Trk) receptors, using the soluble intracellular segment of theses receptors, containing the kinase activity (TrkA (or NTRK1; 400 ng/well; […] Invitrogen)). […] Plates” for “Plates”, “inhibition). […] N=42; […]” for “inhibition).”

SMILES	IC50 (TrkA (or NTRK1))	inhibition at 0.01 µM (TrkB)	inhibition at 0.01 µM (TrkC)	inhibition at 0.01 µM (TrkA)	IC50 (TrkB (or NTRK2))	further results
CN1CCN(c2ccc(C(=O)Nc3n[nH]c4ncc(Sc5cc(F)cc(F)c5)cc34)c(NC3CCOCC3)c2)CC1 [Compound 30, N-(5-(3,5-difluorophenylthio)-1-H-pyrazolo[3,4-b]pyridine-3-yl)-4-(4-methylpiperazine-1-yl)-2-(tetrahydro-2H-pyran-4-ylamino)benzamide]	0.045 µM	84%	64%	93.8%	0.031 µM	dose from which spontaneous pain was completely or nearly completely reversed ([1]; flinches): ≥ 0.16 mg/kg; inhibition of spontaneous flinches (acute inflammatory pain) ([1]; intraperitoneal injection, FIG. 2A): dose-dependently inhibited; inhibition of mechanical allodynia (von Frey) ([1]; oral administration, FIG. 2B): dose-dependently inhibited; dose from which mechanical allodynia was completely or nearly completely reversed ([1]; von Frey): ≥ 2.5 mg/kg; doses at which complete or nearly complete reversion of NGF-induced hyperalgesia occurred (NGF-induced hyperalgesia; intraperitoneal or oral route, P<0.05 vs NGF alone): ≤ 10 mg/kg; inhibition of NGF-induced hyperalgesia (latency time) (NGF-induced hyperalgesia; intraperitoneal route, FIG. 1A): dose-dependently inhibited; inhibition of NGF-induced hyperalgesia (latency time) (NGF-induced hyperalgesia; oral route, FIG. 1B): dose-dependently inhibited; inhibition of paw licking [2]: 44%; light touch-evoked flinching (bone cancer pain; 2.5 mg/kg i.p. chronically from day 7, effect from day 8, FIG. 3B): significantly reduced; limb use score (bone cancer pain; 2.5 mg/kg i.p. chronically from day 7, effect from day 10, FIG. 3A): significantly reduced
CN1CCN(c2ccc(C(=O)Nc3n[nH]c4nc(Nc5ccc(F)cc5F)ncc34)c(NC3CCOCC3)c2)CC1 [B]	3.3 µM	–	–	–	18 µM	–
CN1CCN(c2ccc(C(=O)Nc3n[nH]c4nc(Nc5cc(F)cc(F)c5)ncc34)c(NC3CCOCC3)c2)CC1 [A]	~10 µM	–	–	–	> 100 µM	–
CN1CCN(c2ccc(C(=O)Nc3n[nH]c4ncc(S(=O)(=O)c5cc(F)cc(F)c5)cc34)c(NC3CCOCC3)c2)CC1 [Compound 27-1, N-(5-(3,5-difluorophenylsulfonyl)-1H-pyrazolo[3,4-b]pyridin-3-yl)-4-(4-methylpiperazin-1-yl)-2-(tetrahydro-2H-pyran-4-ylamino)benzamide]	–	93%	96.8%	97.8%	–	–
CN1CCN(c2ccc(C(=O)Nc3n[nH]c4ncc(S(=O)(=O)Nc5cc(F)cc(F)c5)cc34)c(NC3CCOCC3)c2)CC1 [Compound 30-8, N-(5-(N-(3,5-difluorophenyl)sulfamoyl)-1H-pyrazolo[3,4-b]pyridin-3-yl)-4-(4-methylpiperazin-1-yl)-2-(tetrahydro-2H-pyran-4-ylamino)benzamide]	–	96.6%	97.3%	99%	–	–
CN1CCN(c2ccc(C(=O)Nc3n[nH]c4ncc(Cc5cc(F)cc(F)c5)cc34)c(NC3CCOCC3)c2)CC1 [Compound 30-9, N-(5-(3,5-difluorobenzyl)-1H-pyrazolo[3,4-b]pyridin-3-yl)-4-(4-methylpiperazin-1-yl)-2-(tetrahydro-2H-pyran-4-ylamino)benzamide]	–	98%	–	55%	–	–
CN1CCN(c2ccc(C(=O)Nc3n[nH]c4nc(Nc5ccc(F)cc5F)ccc34)c(NC3CCOCC3)c2)CC1 [C]	2.1 µM	–	–	–	5.8 µM	–
CN1CCN(c2ccc(C(=O)Nc3n[nH]c4nc(N)c(Sc5cc(F)cc(F)c5)cc34)c(NC3CCOCC3)c2)CC1 [Compound 14-11, N-(6-amino-5-(3,5-difluorophenylthio)-1H-pyrazolo[3,4-b]pyridin-3-yl)-4-(4-methylpiperazin-1-yl)-2-(tetrahydro-2H-pyran-4-ylamino)benzamide]	–	88%	93.4%	97.4%	–	–
Nc1n[nH]c2ncc(Sc3cc(F)cc(F)c3)cc12 [D]	22 µM	–	–	–	35 µM	–
